Assay results: US20150073005A1, “COMPOSITION FOR HAIR GROWTH” (ASAHI GLASS COMPANY, LIMITED, priority 2012, published 2015)

Test system: C3H/HeNSIc mouse
Details: in vivo
Text: Hairs on the back of each C3H/HeNSIc mouse (male, 8 weeks old) were carefully dehaired in an area of 2 cm×3 cm to form a medicine application surface. The next day (the day before initiation of the test), mice which were confirmed to have no damage on the application surface of the back, to have a pink color over the entire application surface and to be in the telogen stage of hair growth, were bred in a stainless steel cage (185 W×260 D×175 H (mm)) in three groups each group consisting of 10 mice.
Every day, the application surface was inspected before the application, and the day on which hair growth was observed, was taken as the hair growth day.

CC(C)OC(=O)CCC/C=C\C[C@@H]1[C@@H](/C=C/C(F)(F)COc2ccccc2)[C@H](O)C[C@@H]1O [0.0015% Tafluprost, Tafluprost]
Blackening of the skin at the application surface as visually observed: ^aHair growth without blackening of the skin as visually observed.
